Experimental findings from patent US8188085B2, “Antifungal agents” (Merck Sharp & Dohme Corp., priority 2008, dated 2012) are described below.

Chain of glucan synthase (GS) prepared from Candida albicans MY1055 (O13428 1-1897): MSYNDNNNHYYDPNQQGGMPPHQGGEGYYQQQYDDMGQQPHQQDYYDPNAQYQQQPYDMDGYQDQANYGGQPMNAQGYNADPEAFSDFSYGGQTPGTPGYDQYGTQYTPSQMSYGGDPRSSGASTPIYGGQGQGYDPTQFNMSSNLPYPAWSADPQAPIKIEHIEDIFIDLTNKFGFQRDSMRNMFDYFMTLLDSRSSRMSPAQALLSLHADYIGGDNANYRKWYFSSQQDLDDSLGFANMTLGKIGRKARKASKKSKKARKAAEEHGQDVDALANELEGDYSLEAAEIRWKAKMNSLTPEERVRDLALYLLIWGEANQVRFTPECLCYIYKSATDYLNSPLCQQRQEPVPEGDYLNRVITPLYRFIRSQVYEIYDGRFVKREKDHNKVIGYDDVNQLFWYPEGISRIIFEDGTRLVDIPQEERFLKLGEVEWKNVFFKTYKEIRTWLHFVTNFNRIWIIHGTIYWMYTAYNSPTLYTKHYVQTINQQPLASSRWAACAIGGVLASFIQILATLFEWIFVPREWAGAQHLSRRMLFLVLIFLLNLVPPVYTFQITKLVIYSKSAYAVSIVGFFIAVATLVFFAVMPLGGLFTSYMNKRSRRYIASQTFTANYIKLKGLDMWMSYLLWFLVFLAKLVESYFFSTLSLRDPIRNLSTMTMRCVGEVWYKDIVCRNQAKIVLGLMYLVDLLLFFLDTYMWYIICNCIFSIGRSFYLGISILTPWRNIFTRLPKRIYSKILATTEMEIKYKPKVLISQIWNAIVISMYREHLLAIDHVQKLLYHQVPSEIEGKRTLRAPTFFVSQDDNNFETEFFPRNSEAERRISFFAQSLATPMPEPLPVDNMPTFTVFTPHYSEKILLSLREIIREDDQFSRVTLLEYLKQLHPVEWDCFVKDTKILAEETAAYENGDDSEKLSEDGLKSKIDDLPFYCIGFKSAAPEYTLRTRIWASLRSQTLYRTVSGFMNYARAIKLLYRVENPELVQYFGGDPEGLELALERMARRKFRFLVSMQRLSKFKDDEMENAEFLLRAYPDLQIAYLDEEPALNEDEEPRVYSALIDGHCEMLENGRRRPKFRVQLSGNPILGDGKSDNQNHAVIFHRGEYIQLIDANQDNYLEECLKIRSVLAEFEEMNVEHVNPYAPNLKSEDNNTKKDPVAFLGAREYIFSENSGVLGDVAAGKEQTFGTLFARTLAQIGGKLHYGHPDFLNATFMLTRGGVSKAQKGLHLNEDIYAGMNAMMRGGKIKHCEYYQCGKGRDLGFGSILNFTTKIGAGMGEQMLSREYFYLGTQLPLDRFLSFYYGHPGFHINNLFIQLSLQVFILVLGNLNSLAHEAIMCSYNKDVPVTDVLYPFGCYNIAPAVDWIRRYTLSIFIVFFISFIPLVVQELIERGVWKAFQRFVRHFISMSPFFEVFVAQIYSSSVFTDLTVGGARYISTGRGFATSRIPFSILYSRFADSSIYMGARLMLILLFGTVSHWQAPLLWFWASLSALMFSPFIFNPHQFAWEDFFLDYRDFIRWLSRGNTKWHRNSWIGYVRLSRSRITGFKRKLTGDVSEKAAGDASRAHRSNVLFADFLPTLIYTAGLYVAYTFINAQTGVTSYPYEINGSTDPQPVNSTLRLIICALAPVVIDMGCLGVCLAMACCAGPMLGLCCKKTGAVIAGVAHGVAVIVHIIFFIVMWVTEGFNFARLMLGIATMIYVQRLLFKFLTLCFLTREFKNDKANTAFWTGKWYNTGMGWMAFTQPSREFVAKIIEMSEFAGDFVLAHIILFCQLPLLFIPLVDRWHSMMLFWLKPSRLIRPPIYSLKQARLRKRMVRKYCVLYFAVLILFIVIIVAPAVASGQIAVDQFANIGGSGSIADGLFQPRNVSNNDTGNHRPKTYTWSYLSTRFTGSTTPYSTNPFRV

One assay deals with glucan synthase (GS) prepared from Candida albicans MY1055 (Candida albicans, UniProt O13428). In words: Glucan synthase inhibition (polymerization assay, 96-well). The class given is biochemical. The following applies: GS from C. albicans MY1055; 60 min incubation at 22° C. As to the method:
The in vitro evaluation of glucan synthase inhibitory activity of compounds was measured in a polymerization assay in 96-well format. Each well contained 100 μL of ^3H-UDPG at 0.5 mM (6000 to 8000 dpm/nmol), 50 mM HEPES pH 7.5 (Sigma), 10% w/v glycerol (Sigma), 1.5 mg/mL bovine serum albumin (Sigma A 9647. Lot 44H0190), 25 mM KF (Fisher), 1 mM EDTA (Gibco ULTRAPURE), 25 μM GTP-γ-S, enzyme sufficient to give 3 to 6 nmoles incorporation during the 60 min incubation at 22° C., and test compound added from wells in 3-fold serial dilutions in 100% DMSO (1 μL/well). The reaction was stopped by the addition of 100 μL of 20% trichloroacetic acid. Plates were chilled for a minimum of 10 min, and precipitated glucan collected by filtration on GF/C plates (Packard UNIFILTER®-96), washed with 5 cycles of water (about 1 mL/well each cycle) using a Packard FILTERMATE HARVESTER. 40 μL/well scintillation fluid (Packard ULTIMA GOLD TM-XR) was added and the sealed plates counted in a WALLAC BETA counter in top-counting mode at an efficiency of approximately 40%.
Stock solutions were stored at 10 mg/mL in DMSO at −20° C. For each new enzyme preparation, the initial titration performed started at 1 mg/mL, which was prepared by making a 10-fold dilution in DMSO (5 μL to 50 μL). 40 μL of this stock was placed in column 12 of a round-bottomed 96-well microtiter plate. 40 μL DMSO was added to columns 1 to 11 in the same row and ten 3-fold serial dilutions performed, by transferring 20 μL from column 12 to column 11 etc., with 4 mixings before each transfer. No test compound was transferred to from column 2 to column 1. Duplicate aliquots of 1 μL of all 12 dilutions were then transferred to the side walls of a 96-well Bioblock 1.1 mL plate (Fisher brand) to create two rows.
Graphs of the primary data were created in PRISM software (the average of two determinations) using PRISM's curve fitting program (sigmoidal dose response non-linear regression). The amount of compound required to inhibit glucan synthase activity by 50% in this assay (IC50−ng/mL) was calculated.
Routine analysis was performed with glucan synthase (GS) prepared from Candida albicans MY1055 by the following procedure: MY1055 was grown in 10 liters YPD medium (10 g yeast extract, 20 g tryptone, 20 g glucose per liter) with vigorous shaking at 30° C., to early stationary phase. Cells were harvested by centrifugation, the pellet was washed and frozen at −70° C. until breakage. Thawed pellets were shaken with an equal volume of breakage buffer (50 mM HEPES pH 7.4, 10% glycerol, 1 mM EDTA, 1 mM PMSF, 1 mM DTT) and 4 times their weight of 0.5 mm acid washed glass beads for 2 hours at 4° C. Extent of breakage was assessed visually at 40× magnification. After low speed centrifugation to remove cell debris, the supernatant was centrifuged at 100,000×g for 60 min. to separate membranes plus ribosomes from cytoplasmic components. Membranes were further washed two additional times with breakage buffer using the same centrifugation conditions and finally suspended in breakage buffer at 25 to 30 mg/mL protein (Biorad) for storage at −70° C. Extraction of GS activity from membranes was performed at a protein concentration of 5 mg/mL in extraction buffer (50 mM NaPO4 pH 7.5, 0.1 M KCl, 0.1M Na citrate, 20% glycerol, 5 μM GTP-γ-S, 1 mM DTT, 1 mM PMSF, 3 μg/mL pepstatin) plus 0.25% W1 by gentle mixing at 4° C. for 60 min, followed by centrifugation at 100,000×g for 60 min. After centrifugation, clear supernatant was removed from a pellet consisting of a hard layer usually with small amounts of gelatinous unextracted membranes above it.
Trapping was initiated immediately by 5-fold dilution in trapping buffer (50 mM HEPES pH 7.5, 10 mM KF, 1 mM EDTA, 2 mg/mL BSA) plus 2.5 mM UDPG and 10 μM GTP-γ-S. After incubation at 25° C. for 60 to 90 minutes, glucan was harvested by low speed centrifugation (3,000×g, 10 min). […]
`CN[C@@](C)(CO[C@H]1[C@H](n2ncnc2I)C[C@@]23COC[C@]1(C)[C@@H]2CC[C@H]1C3=CC[C@@]2(C)[C@H](C(=O)O)[C@@](C)([C@H](C)C(C)C)CC[C@]12C)C(C)C` (racemic) [Example 22, (1S,4aR,6aS,7R,8R,10aR,10bR,12aR,14R,1SR)-15-[[(2R)-2,3-dimethyl-2-(methylamino)butyl]oxy]-8-[(1R)-1,2-dimethylpropyl]-14-(5-iodo-1H-1,2,4-triazol-1-yl)-1,6,6a,7,8,9,10,10a,10b,11,12,12a-dodecahydro-1,6a,8,10a-tetramethyl-4H-1,4a-propano-2H-phenanthro[1,2-c]pyran-7-carboxylic acid]: the “Candida Albicans GS IC50” value amounted to 5 ng/mL.

Staying with this assay, now noted: GS from C. albicans MY1055; 60 min incubation at 22° C.; read-out: Candida Albicans GS IC50 (converted).
The IC50 is the point on the concentration scale where inhibition reaches its midpoint. Regarding `COC(=O)c1ncn([C@@H]2C[C@@]34COC[C@](C)([C@@H]3CC[C@H]3C4=CC[C@@]4(C)[C@H](C(=O)O)[C@@](C)([C@H](C)C(C)C)CC[C@]34C)[C@H]2OC[C@](C)(N)C(C)C)n1` (single isomer, unassigned) [Example 8A], the IC50 is 5.74 nM. Consider `CC(C)[C@@H](C)[C@@]1(C)CC[C@]2(C)[C@H]3CC[C@@H]4[C@@]5(COC[C@@]4(C)[C@@H](OC[C@](C)(N)C(C)C)[C@H](n4nc(Br)nc4[N+](=O)[O-])C5)C3=CC[C@@]2(C)[C@@H]1C(=O)O` (single isomer, unassigned) [Example 29B], for which the IC50 was 81.3 nM. With `CC(C)[C@@H](C)[C@@]1(C)CC[C@]2(C)[C@H]3CC[C@@H]4[C@@]5(COC[C@@]4(C)[C@@H](OC[C@](C)(N)C(C)C)[C@H](n4nc(N)nc4C4CC4)C5)C3=CC[C@@]2(C)[C@@H]1C(=O)O` (single isomer, unassigned) [Example 32A], the 50% inhibitory concentration (IC50) is 4.32 nM. Same read-out and setting: the same measure for `CC(C)NC(=O)c1ncn([C@@H]2C[C@@]34COC[C@](C)([C@@H]3CC[C@H]3C4=CC[C@@]4(C)[C@H](C(=O)O)[C@@](C)([C@H](C)C(C)C)CC[C@]34C)[C@H]2OC[C@](C)(N)C(C)C)n1` (single isomer, unassigned) [Example 37B]: 60.8 nM. For the compound `CC(C)[C@@H](C)[C@@]1(C)CC[C@]2(C)[C@H]3CC[C@@H]4[C@@]5(COC[C@@]4(C)[C@@H](OC[C@](C)(N)C(C)C)[C@H](n4nccn4)C5)C3=CC[C@@]2(C)[C@@H]1C(=O)O` (single isomer, unassigned) [Example 288B], the IC50 is 17.2 nM. For `COC(=O)c1cnnn1[C@@H]1C[C@@]23COC[C@](C)([C@@H]2CC[C@H]2C3=CC[C@@]3(C)[C@H](C(=O)O)[C@@](C)([C@H](C)C(C)C)CC[C@]23C)[C@H]1OC[C@](C)(N)C(C)C` (single isomer, unassigned) [Example 289B], the IC50 is 126 nM. In the case of `CC(C)[C@@H](C)[C@@]1(C)CC[C@]2(C)[C@H]3CC[C@@H]4[C@@]5(COC[C@@]4(C)[C@@H](OC[C@](C)(N)C(C)C)[C@H](n4nccc4[N+](=O)[O-])C5)C3=CC[C@@]2(C)[C@@H]1C(=O)O` (single isomer, unassigned) [Example 293B], the IC50 was 4.39 nM. On the same count and under the same terms, then `CC(C)[C@@H](C)[C@@]1(C)CC[C@]2(C)[C@H]3CC[C@@H]4[C@@]5(COC[C@@]4(C)[C@@H](OCC4COCCN4)[C@H](n4ncnc4-c4ccncc4)C5)C3=CC[C@@]2(C)[C@@H]1C(=O)O` (single isomer, unassigned) [Example 303A], with 30.7 nM; and `CC(C)[C@@H](C)[C@@]1(C)CC[C@]2(C)[C@H]3CC[C@@H]4[C@@]5(COC[C@@]4(C)[C@@H](OC[C@](C)(N)C(C)(C)C)[C@H](n4cnnc4)C5)C3=CC[C@@]2(C)[C@@H]1C(=O)O` [Example 1B, (1S,4aR,6aS,7R,8R,10aR,10bR,12aR,14R,15R)-15-[[(2R)-2-amino-2,3,3-trimethylbutyl]oxy]-8-[(1R)-1,2-dimethylpropyl]-14-(4H-1,2,4-triazol-4-yl)-1,6,6a,7,8,9,10,10a,10b,11,12,12a-dodecahydro-1,6a,8,10a-tetramethyl-4H-1,4a-propano-2H-phenanthro[1,2-c]pyran-7-carboxylic acid], with 42.9 nM; and `CN[C@](C)(CO[C@H]1[C@H](n2cncn2)C[C@@]23COC[C@]1(C)[C@@H]2CC[C@H]1C3=CC[C@@]2(C)[C@H](C(=O)O)[C@@](C)([C@H](C)C(C)C)CC[C@]12C)C(C)C` [Example 3, (1S,4aR,6aS,7R,8R,10aR,10bR,12aR,14R,15R)-15-[[(2S)-2,3-dimethyl-2-(methylamino)butyl]oxy]-8-[(1R)-1,2-dimethylpropyl]-14-(1H-1,2,4-triazol-1-yl)-1,6,6a,7,8,9,10,10a,10b,11,12,12a-dodecahydro-1,6a,8,10a-tetramethyl-4H-1,4a-propano-2H-phenanthro[1,2-c]pyran-7-carboxylic acid], with 26 nM.

Consider `CN[C@@](C)(CO[C@H]1[C@H](n2cnc(N)n2)C[C@@]23COC[C@]1(C)[C@@H]2CC[C@H]1C3=CC[C@@]2(C)[C@H](C(=O)O)[C@@](C)([C@H](C)C(C)C)CC[C@]12C)C(C)C` [Example 5, (1S,4aR,6aS,7R,8R,10aR,10bR,12aR,14R,15R)-14-(3-amino-1H-1,2,4-triazol-1-yl)-15-[[(2R)-2,3-dimethyl-2-(methylamino)butyl]oxy]-8-[(1R)-1,2-dimethylpropyl]-1,6,6a,7,8,9,10,10a,10b,11,12,12a-dodecahydro-1,6a,8,10a-tetramethyl-4H-1,4a-propano-2H-phenanthro[1,2-c]pyran-7-carboxylic acid], for which the IC50 was 12 nM. `CC(C)[C@@H](C)[C@@]1(C)CC[C@]2(C)[C@H]3CC[C@@H]4[C@@]5(COC[C@@]4(C)[C@@H](OC[C@](C)(N)C(C)C)[C@H](n4cnc(Br)n4)C5)C3=CC[C@@]2(C)[C@@H]1C(=O)O` [Example 6C, (1S,4aR,6aS,7R,8R,10aR,10bR,12aR,14R,15R)-15-[[(2R)-2-amino-2,3-dimethylbutyl]oxy]-14-(3-bromo-1H-1,2,4-triazol-1-yl)-8-[(1R)-1,2-dimethylpropyl]-1,6,6a,7,8,9,10,10a,10b,11,12,12a-dodecahydro-1,6a,8,10a-tetramethyl-4H-1,4a-propano-2H-phenanthro[1,2-c]pyran-7-carboxylic acid]: the IC50 is 47.4 nM. With `CC(C)[C@@H](C)[C@@]1(C)CC[C@]2(C)[C@H]3CC[C@@H]4[C@@]5(COC[C@@]4(C)[C@@H](OCC(C)(C(C)C)N(C)C)[C@H](n4ncnc4Cl)C5)C3=CC(=O)[C@@]2(C)[C@@H]1C(=O)O` (stereo partly drawn) [Example 9B, (1S,4aR,6aS,7R,8R,10aR,10bR,12aR,14R,15R)-14-(5-chloro-1H-1,2,4-triazol-1-yl)-15-[2-(dimethylamino)-2,3-dimethylbutoxy]-8-[(1R)-1,2-dimethylpropyl]-1,6,6a,7,8,9,10,10a,10b,11,12,12a-dodecahydro-1,6a,8,10a-tetramethyl-6-oxo-4H-1,4a-propano-2H-phenanthro[1,2-c]pyran-7-carboxylic acid], the IC50 was 36.3 nM.
